Laboratory results as given in patent publication US20260092071A1, “COMPOUNDS AND COMPOSITIONS AS SMARCA2/4 DEGRADERS AND USES THEREOF” (REGENTS OF THE UNIVERSITY OF MICHIGAN, priority 2022, published 2026).

Columns and labels:
[1] = biological target: SMARCA4 (Homo sapiens, UniProt P51532); experiment: HiBit assay in engineered HT1080 CRISPR knock-in cell, 6 hrs (B series), SMARCA4; type: cell-based; conditions: 6 hrs incubation; for DC50: HT1080 CRISPR knock-in cells, read-out: SMARC A4 HT1080 HiBit DC50; for Dmax: HT-1080, HT1080 CRISPR knock-in cells, read-out: SMARC A4 HT1080 HiBit Dmax(%)
Chain of SMARCA4 (P51532 whole entry): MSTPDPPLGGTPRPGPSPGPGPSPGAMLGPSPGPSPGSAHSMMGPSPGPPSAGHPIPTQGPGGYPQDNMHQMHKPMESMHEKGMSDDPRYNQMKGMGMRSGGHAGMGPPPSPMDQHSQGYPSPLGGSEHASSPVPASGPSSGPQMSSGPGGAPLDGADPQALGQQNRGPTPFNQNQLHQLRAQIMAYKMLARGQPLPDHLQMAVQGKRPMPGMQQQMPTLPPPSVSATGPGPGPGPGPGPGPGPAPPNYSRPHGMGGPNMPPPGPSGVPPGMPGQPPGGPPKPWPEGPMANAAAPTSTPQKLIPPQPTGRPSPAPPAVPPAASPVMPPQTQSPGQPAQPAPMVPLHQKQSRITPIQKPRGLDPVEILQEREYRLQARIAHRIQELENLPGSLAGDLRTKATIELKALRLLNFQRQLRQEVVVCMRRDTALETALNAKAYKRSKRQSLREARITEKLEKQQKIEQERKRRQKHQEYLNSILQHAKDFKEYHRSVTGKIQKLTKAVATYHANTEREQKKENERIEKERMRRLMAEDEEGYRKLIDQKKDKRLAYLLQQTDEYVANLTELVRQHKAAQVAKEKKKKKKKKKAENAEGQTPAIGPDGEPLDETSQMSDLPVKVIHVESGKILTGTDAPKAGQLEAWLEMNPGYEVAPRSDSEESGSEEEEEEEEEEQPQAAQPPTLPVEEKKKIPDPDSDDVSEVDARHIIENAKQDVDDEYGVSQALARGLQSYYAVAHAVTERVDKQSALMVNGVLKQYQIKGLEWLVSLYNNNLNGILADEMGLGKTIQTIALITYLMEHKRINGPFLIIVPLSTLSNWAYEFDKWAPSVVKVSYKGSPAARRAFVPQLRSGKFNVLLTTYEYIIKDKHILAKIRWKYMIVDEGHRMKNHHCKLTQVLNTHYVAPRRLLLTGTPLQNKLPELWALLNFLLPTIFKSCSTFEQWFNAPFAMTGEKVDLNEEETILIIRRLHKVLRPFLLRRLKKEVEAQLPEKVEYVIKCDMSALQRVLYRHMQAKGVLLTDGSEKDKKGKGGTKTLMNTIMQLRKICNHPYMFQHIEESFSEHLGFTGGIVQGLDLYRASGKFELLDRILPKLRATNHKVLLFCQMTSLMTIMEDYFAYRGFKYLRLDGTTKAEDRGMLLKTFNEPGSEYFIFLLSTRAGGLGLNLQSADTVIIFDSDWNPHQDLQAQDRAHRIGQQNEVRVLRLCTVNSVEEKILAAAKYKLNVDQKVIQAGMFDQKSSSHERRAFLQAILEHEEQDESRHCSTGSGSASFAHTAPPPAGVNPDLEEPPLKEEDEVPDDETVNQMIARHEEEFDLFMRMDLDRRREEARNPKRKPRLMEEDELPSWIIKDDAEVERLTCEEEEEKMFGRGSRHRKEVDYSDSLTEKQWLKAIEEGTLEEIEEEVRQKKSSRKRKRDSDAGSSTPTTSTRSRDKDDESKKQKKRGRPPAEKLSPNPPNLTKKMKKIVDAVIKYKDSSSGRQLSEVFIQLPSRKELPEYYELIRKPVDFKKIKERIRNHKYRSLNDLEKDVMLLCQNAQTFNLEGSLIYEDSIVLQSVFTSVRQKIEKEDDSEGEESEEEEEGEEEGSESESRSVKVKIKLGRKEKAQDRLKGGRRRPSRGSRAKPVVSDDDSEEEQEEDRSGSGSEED
Method in brief: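 Compounds were dispensed first, then HT1080 knock-in cells added and incubated for 6 hrs at 37° C. Next, detection reagent containing LgBiT and lytic substrate was added. Plates were shaken 10 min and centrifuged, and luminescence was measured.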

[2] = biological target: SMARCA2 (Homo sapiens, UniProt P51531); experiment: HiBit assay in engineered HT1080 CRISPR knock-in cell, 6 hrs (B series), SMARCA2; type: cell-based; conditions: 6 hrs incubation; for DC50: HT1080 CRISPR knock-in cells, read-out: SMARC A2 HT1080 HiBit DC50; for Dmax: HT-1080, HT1080 CRISPR knock-in cells, read-out: SMARC A2 HT1080 HiBit Dmax (%)
Chain of SMARCA2 (P51531 whole entry): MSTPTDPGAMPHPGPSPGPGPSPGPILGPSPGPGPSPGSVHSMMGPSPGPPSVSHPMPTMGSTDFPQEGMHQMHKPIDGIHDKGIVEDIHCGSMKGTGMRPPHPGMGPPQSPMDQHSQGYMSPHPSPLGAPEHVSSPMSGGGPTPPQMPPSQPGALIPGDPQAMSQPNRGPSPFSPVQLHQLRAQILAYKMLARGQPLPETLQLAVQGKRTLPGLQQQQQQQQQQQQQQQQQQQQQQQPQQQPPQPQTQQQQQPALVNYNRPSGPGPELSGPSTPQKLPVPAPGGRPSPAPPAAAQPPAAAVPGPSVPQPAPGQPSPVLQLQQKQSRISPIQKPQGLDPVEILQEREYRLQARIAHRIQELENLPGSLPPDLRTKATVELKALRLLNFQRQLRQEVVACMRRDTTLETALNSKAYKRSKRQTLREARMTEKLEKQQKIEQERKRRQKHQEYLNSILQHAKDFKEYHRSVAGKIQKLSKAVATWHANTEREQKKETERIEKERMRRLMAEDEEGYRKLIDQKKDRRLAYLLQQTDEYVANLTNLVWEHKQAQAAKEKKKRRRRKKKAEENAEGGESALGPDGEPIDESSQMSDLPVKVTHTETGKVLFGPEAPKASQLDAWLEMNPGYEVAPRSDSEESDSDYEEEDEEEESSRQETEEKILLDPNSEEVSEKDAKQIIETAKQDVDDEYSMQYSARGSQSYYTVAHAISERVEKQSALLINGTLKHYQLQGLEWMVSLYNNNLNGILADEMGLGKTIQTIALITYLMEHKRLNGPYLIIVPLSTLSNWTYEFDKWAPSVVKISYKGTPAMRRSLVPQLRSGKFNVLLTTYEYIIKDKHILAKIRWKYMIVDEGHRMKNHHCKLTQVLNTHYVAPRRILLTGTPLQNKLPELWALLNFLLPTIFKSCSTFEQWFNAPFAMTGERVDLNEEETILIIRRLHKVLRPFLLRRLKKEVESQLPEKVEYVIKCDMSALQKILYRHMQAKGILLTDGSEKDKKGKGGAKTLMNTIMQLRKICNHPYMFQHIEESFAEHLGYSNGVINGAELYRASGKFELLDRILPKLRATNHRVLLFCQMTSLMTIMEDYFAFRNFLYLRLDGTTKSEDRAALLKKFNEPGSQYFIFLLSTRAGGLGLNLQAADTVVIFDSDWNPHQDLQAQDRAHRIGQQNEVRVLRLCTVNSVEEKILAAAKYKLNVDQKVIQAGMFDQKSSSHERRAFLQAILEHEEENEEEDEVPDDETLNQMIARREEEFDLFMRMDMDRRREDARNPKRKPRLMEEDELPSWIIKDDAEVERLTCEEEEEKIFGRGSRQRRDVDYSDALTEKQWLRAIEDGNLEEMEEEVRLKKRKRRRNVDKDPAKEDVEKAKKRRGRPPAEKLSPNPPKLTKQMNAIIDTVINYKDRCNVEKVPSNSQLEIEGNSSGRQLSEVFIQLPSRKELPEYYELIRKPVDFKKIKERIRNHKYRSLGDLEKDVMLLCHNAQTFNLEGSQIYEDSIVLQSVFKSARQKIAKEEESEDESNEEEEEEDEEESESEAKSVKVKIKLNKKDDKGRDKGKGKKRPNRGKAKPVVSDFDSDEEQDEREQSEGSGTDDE
Method in brief: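 Remaining SMARCA2 protein measured as HiBiT luminescence after cell lysis with LgBiT plus lytic substrate. Engineered HT1080 knock-in cells (2000/well) were first treated 6 h at 37 °C with compound at a final 0.1% DMSO.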

DC50 [1] [µM] | Dmax [1] [%] | DC50 [2] [µM] | Dmax [2] [%] | Compound
< 0.1 | < 50 | < 0.1 | > 90 | Cc1ncsc1-c1ccc([C@H](C)NC(=O)[C@@H]2C[C@@H](O)CN2C(=O)[C@@H](c2cc(OC3CCC(N4CCC(c5ccc6c(c5)-n5c(nc(=O)c7c(Cl)cccc75)C6(C)C)CC4)CC3)no2)C(C)C)cc1 (stereo partly drawn) [Compound B81, (2S,4R)-1-((R)-2-(3-((4-(4-(4-chloro-7,7-dimethyl-5-oxo-5,7-dihydroindolo[1,2-a]quinazolin-10-yl)piperidin-1-yl)cyclohexyl)oxy)isoxazol-5-yl)-3-methylbutanoyl)-4-hydroxy-N-((S)-1-(4-(4-methylthiazol-5-yl)phenyl)ethyl)pyrrolidine-2-carboxamide]
< 0.1 | 50 to 69 | < 0.1 | 70 to 90 | Cc1ncsc1-c1ccc([C@H](C)NC(=O)[C@@H]2C[C@@H](O)CN2C(=O)[C@@H](c2cc(OCC3(CN4CCC(c5ccc6c(c5)C(C)(C)c5nc(=O)c7c(Cl)cccc7n5-6)CC4)CC3)no2)C(C)C)cc1 [Compound B82, (2S,4R)-1-((R)-2-(3-((1-((4-(4-chloro-7,7-dimethyl-5-oxo-5,7-dihydroindolo[1,2-a]quinazolin-9-yl)piperidin-1-yl)methyl)cyclopropyl)methoxy)isoxazol-5-yl)-3-methylbutanoyl)-4-hydroxy-N-((S)-1-(4-(4-methylthiazol-5-yl)phenyl)ethyl)pyrrolidine-2-carboxamide]
> 1 | < 50 | 0.1 to 0.5 | < 50 | Cc1ncsc1-c1ccc([C@H](C)NC(=O)[C@@H]2C[C@@H](O)CN2C(=O)[C@@H](NC(=O)CCCn2cc(-c3ccc4c(c3)-n3c(nc(=O)c5c(Cl)cccc53)C4(C)C)cn2)C(C)(C)C)cc1 [Compound B83, (2S,4R)-1-((S)-2-(4-(4-(4-chloro-7,7-dimethyl-5-oxo-5,7-dihydroindolo[1,2-a]quinazolin-10-yl)-1H-pyrazol-1-yl)butanamido)-3,3-dimethylbutanoyl)-4-hydroxy-N-((S)-1-(4-(4-methylthiazol-5-yl)phenyl)ethyl)pyrrolidine-2-carboxamide]
< 0.1 | > 90 | < 0.1 | > 90 | Cc1cc(C(C(=O)N2C[C@H](O)C[C@H]2C(=O)N[C@@H](CCCCCN2CCC(c3ccc4c(c3)-n3c(nc(=O)c5c(Cl)cccc53)C4(C)C)CC2)c2ccc(-c3scnc3C)cc2)C(C)C)on1 (stereo partly drawn) [Compound B84, (2S,4R)-N-((S)-6-(4-(4-chloro-7,7-dimethyl-5-oxo-5,7-dihydroindolo[1,2-a]quinazolin-10-yl)piperidin-1-yl)-1-(4-(4-methylthiazol-5-yl)phenyl)hexyl)-4-hydroxy-1-(3-methyl-2-(3-methylisoxazol-5-yl)butanoyl)pyrrolidine-2-carboxamide]
< 0.1 | > 90 | < 0.1 | > 90 | Cc1cc(C(C(=O)N2C[C@H](O)C[C@H]2C(=O)N[C@@H](CCCCCN2CCC(c3ccc4c(c3)C(C)(C)c3nc(=O)c5c(Cl)cccc5n3-4)CC2)c2ccc(-c3scnc3C)cc2)C(C)C)on1 (stereo partly drawn) [Compound B85, (2S,4R)-N-((S)-6-(4-(4-chloro-7,7-dimethyl-5-oxo-5,7-dihydroindolo[1,2-a]quinazolin-9-yl)piperidin-1-yl)-1-(4-(4-methylthiazol-5-yl)phenyl)hexyl)-4-hydroxy-1-(3-methyl-2-(3-methylisoxazol-5-yl)butanoyl)pyrrolidine-2-carboxamide]
< 0.1 | 70 to 90 | < 0.1 | > 90 | Cc1ncsc1-c1ccc([C@H](C)NC(=O)[C@@H]2C[C@@H](O)CN2C(=O)[C@@H](n2cc(C3CC4(C3)CC(N3CCC(c5ccc6c(c5)-n5c(nc(=O)c7c(Cl)cccc75)C6(C)C)CC3)C4)nn2)C(C)(C)C)cc1 (stereo partly drawn) [Compound B86, (2S,4R)-1-((S)-2-(4-(6-(4-(4-chloro-7,7-dimethyl-5-oxo-5,7-dihydroindolo[1,2-a]quinazolin-10-yl)piperidin-1-yl)spiro[3.3]heptan-2-yl)-1H-1,2,3-triazol-1-yl)-3,3-dimethylbutanoyl)-4-hydroxy-N—((S)-1-(4-(4-methylthiazol-5-yl)phenyl)ethyl)pyrrolidine-2-carboxamide]
> 1 | < 50 | 0.1 to 0.5 | 50 to 69 | Cc1ncsc1-c1ccc([C@H](C)NC(=O)[C@@H]2C[C@@H](O)CN2C(=O)[C@@H](NC(=O)CCCCn2cc(-c3ccc4c(c3)C(C)(C)c3nc(=O)c5c(Cl)cccc5n3-4)cn2)C(C)(C)C)cc1 [Compound B87, (2S,4R)-1-((S)-2-(5-(4-(4-chloro-7,7-dimethyl-5-oxo-5,7-dihydroindolo[1,2-a]quinazolin-9-yl)-1H-pyrazol-1-yl)pentanamido)-3,3-dimethylbutanoyl)-4-hydroxy-N-((S)-1-(4-(4-methylthiazol-5-yl)phenyl)ethyl)pyrrolidine-2-carboxamide]
> 1 | < 50 | > 1 | < 50 | C[C@H](NC(=O)[C@@H]1C[C@@H](O)CN1C(=O)[C@@H](NC(=O)[C@H]1CC[C@H](CN2CCC(c3ccc4c(c3)C(C)(C)c3nc(=O)c5c(Cl)cccc5n3-4)CC2)CC1)C(C)(C)C)c1ccc(-c2ncnn2C)cc1 [Compound B88, (2S,4R)-1-((S)-2-((11,4S)-4-((4-(4-chloro-7,7-dimethyl-5-oxo-5,7-dihydroindolo[1,2-a]quinazolin-9-yl)piperidin-1-yl)methyl)cyclohexane-1-carboxamido)-3,3-dimethylbutanoyl)-4-hydroxy-N-((S)-1-(4-(1-methyl-1H-1,2,4-triazol-5-yl)phenyl)ethyl)pyrrolidine-2-carboxamide]
0.1 to 0.5 | > 90 | < 0.1 | > 90 | Cc1ncsc1-c1ccc([C@H](C)NC(=O)[C@@H]2C[C@@H](O)CN2C(=O)[C@H](c2cc(N3CCC(C(=O)N4CCC(c5ccc6c(c5)C(C)(C)c5nc(=O)c7c(Cl)cccc7n5-6)CC4)CC3)no2)C(C)C)cc1 [Compound B89, (2S,4R)-1-(2-(3-(4-(4-(4-chloro-7,7-dimethyl-5-oxo-5,7-dihydroindolo[1,2-a]quinazolin-9-yl)piperidine-1-carbonyl)piperidin-1-yl)isoxazol-5-yl)-3-methylbutanoyl)-4-hydroxy-N—((S)-1-(4-(4-methylthiazol-5-yl)phenyl)ethyl)pyrrolidine-2-carboxamide]
< 0.1 | > 90 | < 0.1 | > 90 | Cc1ncsc1-c1ccc([C@H](C)NC(=O)[C@@H]2C[C@@H](O)CN2C(=O)[C@@H](c2cc(N3CCC(C(=O)N4CCC(c5ccc6c(c5)C(C)(C)c5nc(=O)c7c(Cl)cccc7n5-6)CC4)CC3)no2)C(C)C)cc1 [Compound B90, (2S,4R)-1-(2-(3-(4-(4-(4-chloro-7,7-dimethyl-5-oxo-5,7-dihydroindolo[1,2-a]quinazolin-9-yl)piperidine-1-carbonyl)piperidin-1-yl)isoxazol-5-yl)-3-methylbutanoyl)-4-hydroxy-N—((S)-1-(4-(4-methylthiazol-5-yl)phenyl)ethyl)pyrrolidine-2-carboxamide]
